SMILES strings stand for the structures.

The target of one test is PCAF bromodomain (His/Flag epitope tagged PCAF719-832) (Homo sapiens (Human), UniProt Q92831). In words: PCAF AlphaLisa binding assay.
PCAF bromodomain (His/Flag epitope tagged PCAF719-832), sequence (Q92831 719-832): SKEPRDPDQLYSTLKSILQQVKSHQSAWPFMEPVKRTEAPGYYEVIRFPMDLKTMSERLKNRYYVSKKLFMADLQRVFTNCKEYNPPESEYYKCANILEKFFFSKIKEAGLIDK
Settings: not given
The procedure:
IC50 Measurements for Inhibitors Using PCAF AlphaLisa Binding Assay
PCAF bromodomain binding and inhibition of the compounds disclosed herein was assessed by monitoring the engagement of biotinylated small molecule ligand (known to bind to the PCAF bromodomain) with the target using the AlphaLisa technology (Perkin-Elmer).
As to `Cn1ncc(NC2CN3CCC2CC3)c(Cl)c1=O` (racemic) [Example 10, (racemic)-4-chloro-2-methyl-5-(quinuclidin-3-ylamino)pyridazin-3(2H)-one], the half-maximal inhibitory concentration (IC50) – broadly, the concentration that inhibits the measured activity by half – worked out at 975 nM.

Still in this test, the particulars now being: AlphaLisa; PCAF bromodomain 225 nM, biotinylated small molecule ligand 6 nM; read-out: PCAF IC50.
For the molecule `CN1CCCCC(Nc2cnn(C)c(=O)c2Cl)C1` (racemic) [Example 1, 4-chloro-2-methyl-5-((1-methylazepan-3-yl)amino)pyridazin-3(2H)-one], the IC50 turned out to be 62 nM.
For `CN1CCCC(Nc2cnn(C)c(=O)c2Cl)CC1` (racemic) [Example 4, (racemic)-4-chloro-2-methyl-5-((1-methylazepan-4-yl)amino)pyridazin-3(2H)-one], the IC50 is 187 nM.
Take `Cn1ncc(NC2CCCOC2)c(Cl)c1=O` (racemic) [Example 11, (racemic)-4-chloro-2-methyl-5-((tetrahydro-2H-pyran-3-yl)amino)pyridazin-3(2H)-one]: the IC50 amounted to 1020 nM.
Turning to `CN1CC(Nc2cnn(C)c(=O)c2Cl)CC(c2ccccc2)C1` (racemic) [Example 24, 4-chloro-2-methyl-5-((1-methyl-5-phenylpiperidin-3-yl)amino)pyridazin-3(2H)-one], the IC50 is 167 nM.
In the case of `C[C@@H]1CC[C@@H](Nc2cnn(C)c(=O)c2Cl)CN1C` (stereo in doubt) [Example 26, 4-chloro-5-((1,6-dimethylpiperidin-3-yl)amino)-2-methylpyridazin-3(2H)-one], the IC50 was found to be 34.8 nM.
In the case of `C[C@@H]1CC[C@H](Nc2cnn(C)c(=O)c2Cl)CN1C` (stereo in doubt) [Example 27, 4-chloro-5-((1,6-dimethylpiperidin-3-yl)amino)-2-methylpyridazin-3(2H)-one], the IC50 amounted to 144 nM.
For `C[C@@H]1CC[C@@H](Nc2cnn(C)c(=O)c2Cl)CN1C` (stereo in doubt) [Example 28, 4-chloro-5-((1,6-dimethylpiperidin-3-yl)amino)-2-methylpyridazin-3(2H)-one], the IC50 amounted to 175 nM.
With `C[C@H]1CC[C@@H](Nc2cnn(C)c(=O)c2Cl)CN1C` (stereo in doubt) [Example 29, 4-chloro-5-((1,6-dimethylpiperidin-3-yl)amino)-2-methylpyridazin-3(2H)-one], the IC50 was 48.5 nM.
Turning to `CN1CCC(Nc2cnn(C)c(=O)c2Cl)CC1` [Example 2, 4-chloro-2-methyl-5-((1-methylpiperidin-4-yl)amino)pyridazin-3(2H)-one], the IC50 came to 1220 nM.
Regarding `CN1[C@@H]2CC[C@H]1C[C@@H](Nc1cnn(C)c(=O)c1Cl)C2` [Example 5, 4-chloro-2-methyl-5-(((1R,3r,5S)-8-methyl-8-azabicyclo[3.2.1]octan-3-yl)amino)pyridazin-3(2H)-one], the IC50 was 480 nM.
Same read-out and setting: the value for `CN1[C@@H]2CC[C@H]1C[C@H](Nc1cnn(C)c(=O)c1Cl)C2` [Example 6, 4-chloro-2-methyl-5-(((1R,3s,5S)-8-methyl-8-azabicyclo[3.2.1]octan-3-yl)amino)pyridazin-3(2H)-one] was 492 nM; that for `Cn1ncc(NC2CCCN(c3ccccn3)C2)c(Cl)c1=O` (centres unmarked) [Example 9, 4-chloro-2-methyl-5-((1-(pyridin-2-yl)piperidin-3-yl)amino)pyridazin-3(2H)-one] was 403 nM; that for `Cc1c(NC2CCCCN(C)C2)cnn(C)c1=O` (centres unmarked) [Example 12, 2,4-dimethyl-5-((1-methylazepan-3-yl)amino)pyridazin-3(2H)-one] was 165 nM.
Regarding `CN1CCCCC(Nc2cnn(C)c(=O)c2Br)C1` (centres unmarked) [Example 13, 4-bromo-2-methyl-5-((1-methylazepan-3-yl)amino)pyridazin-3(2H)-one], the IC50 stood at 51 nM.
For `CC(C)n1ncc(NC2CCCCN(C)C2)c(Cl)c1=O` (centres unmarked) [Example 14, 4-chloro-2-isopropyl-5-((1-methylazepan-3-yl)amino)pyridazin-3(2H)-one], the IC50 amounted to 1090 nM.
`CCn1ncc(NC2CCCCN(C)C2)c(Cl)c1=O` (centres unmarked) [Example 15, 4-chloro-2-ethyl-5-((1-methylazepan-3-yl)amino)pyridazin-3(2H)-one]: the IC50 worked out at 407 nM.
